Results on two molecules are retold here after patent US8450327B2, “CGRP antagonists” (Boehringer Ingelheim International GmbH, priority 2007, dated 2013).

The target of this experiment is T1, human CGRP receptor (Homo sapiens, UniProt O60894+Q16602).
T1 construct: SK-N-MC cells are cultivated in “Dulbecco's modified Eagle medium”; endogenous in cells; host or cells: SK-N-MC cells (membrane homogenate)
Put plainly: Binding studies with SK-N-MC cells (expressing the human CGRP receptor), 125I-CGRP displacement on membranes. To be noted: SK-N-MC cell membranes, 50 pM 125I-iodotyrosyl-CGRP, 180 min at ambient temperature. The method, then:
A. Binding Studies with SK-N-MC Cells (Expressing the Human CGRP Receptor)
SK-N-MC cells are cultivated in “Dulbecco's modified Eagle medium”. The medium is removed from confluent cultures. The cells are washed twice with PBS buffer (Gibco 041-04190 M), detached by the addition of PBS buffer mixed with 0.02% EDTA, and isolated by centrifuging. After resuspension in 20 ml of “Balanced Salts Solution” [BSS (in mM): NaCl 120, KCl 5.4, NaHCO3 16.2, MgSO4 0.8, NaHPO4 1.0, CaCl2 1.8, D-glucose 5.5, HEPES 30, pH 7.40] the cells are centrifuged twice at 100×g and resuspended in BSS. After the number of cells has been determined, the cells are homogenised using an Ultra-Turrax and centrifuged for 10 minutes at 3000×g. […]
After thawing, the homogenised product is diluted 1:10 with assay buffer (50 mM Tris, 150 mM NaCl, 5 mM MgCl2, 1 mM EDTA, pH 7.40) and homogenised for 30 seconds with an Ultra-Turrax. […] The protein-bound radioactivity is measured using a gamma counter. Non-specific binding is defined as the bound radioactivity after the presence of 1 μM human CGRP-alpha during incubation.
The concentration binding curves are analysed using computer-aided non-linear curve fitting.

T1 sequence (Q16602 23-461): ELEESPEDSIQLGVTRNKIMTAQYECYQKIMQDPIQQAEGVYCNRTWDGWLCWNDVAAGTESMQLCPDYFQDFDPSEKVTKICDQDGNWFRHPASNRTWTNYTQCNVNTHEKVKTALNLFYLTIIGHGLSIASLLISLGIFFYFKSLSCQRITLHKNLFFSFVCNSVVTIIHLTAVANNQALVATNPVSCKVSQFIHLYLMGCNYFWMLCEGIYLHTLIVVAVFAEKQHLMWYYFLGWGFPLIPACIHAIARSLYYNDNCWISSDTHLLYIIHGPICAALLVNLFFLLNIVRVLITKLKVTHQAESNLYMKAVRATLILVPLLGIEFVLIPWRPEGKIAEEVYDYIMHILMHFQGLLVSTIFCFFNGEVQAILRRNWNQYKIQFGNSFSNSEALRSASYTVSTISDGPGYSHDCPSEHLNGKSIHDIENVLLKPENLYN
T1 sequence (O60894 27-148): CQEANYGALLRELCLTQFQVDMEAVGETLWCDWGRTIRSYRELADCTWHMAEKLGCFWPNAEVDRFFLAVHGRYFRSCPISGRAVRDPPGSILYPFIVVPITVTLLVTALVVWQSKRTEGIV

In the case of `Cc1cc(C(=O)c2cc(N3CCC4(CC3)NC(=O)Nc3ccccc34)ncn2)cc2oc(=O)[nH]c12` [Example 1, 4-methyl-6-(6-(2′-oxo-2′,3′-dihydro-1′H-spiro[piperidin-4,4′-quinazolin]-1-yl)pyrimidine-4-carbonyl)benzo[d]oxazol-2(3H)-one], the Ki came out at 6 nM.
For `Cc1cc(C(=O)c2cc(Nc3ccc4c(c3)CC3(C4)C(=O)Nc4ncccc43)ncn2)cc2oc(=O)[nH]c12` (centres unmarked) [Example 2, 4-methyl-6-(6-(2′-oxo-1,1′,2′,3-tetrahydrospiro[inden-2,3′-pyrrolo[2,3-b]pyridin]-5-ylamino)pyrimidine-4-carbonyl)benzo[d]oxazol-2(3H)-one], the Ki was found to be 27 nM.
